Experimental data published in ChEMBL document CHEMBL1158194, “Phytogrowth-inhibitory compounds from Malmea depressa” (J Nat Prod, 1996).
≈ marks a conversion by molar mass, not a printed value.

Tests used:
Aspergillus niger = experiment: Antifungal activity against Aspergillus niger ATCC 16888 by agar dilution method; format: functional
Echinochloa crus-galli = experiment: Inhibition of phytogrowth in Echinochloa crus-galli seedlings measured after 48 hrs incubation under dark condition; format: functional, organism-based
[1] = tested on: Amaranthus hypochondriacus; experiment: Inhibition of phytogrowth in Amaranthus hypochondriacus seedlings measured after 24 hrs incubation under dark condition; format: functional, organism-based
[2] = Toxicity in brine shrimp larvae; format: organism-based; conditions: artemia, in vivo
MCF7 = experiment: Cytotoxicity against human MCF7 cells; format: functional; conditions: read-out: ED50 (the source's name)
[3] = tested on: Trichophyton mentagrophytes; experiment: Antifungal activity against Trichophyton mentagrophytes ATCC 9129 by agar dilution method; format: functional
HT-29 = experiment: Cytotoxicity against human HT29 cells; format: functional; conditions: read-out: ED50 (the source's name)
Fusarium oxysporum = experiment: Antifungal activity against Fusarium oxysporum; format: functional
A549 = experiment: Cytotoxicity against human A549 cells; format: functional; conditions: read-out: ED50 (the source's name)

Structure (SMILES) | IC50 (Echinochloa crus-galli) [µg/mL] | IC50 [1] [µg/mL] | EC50 (MCF7) [µg/mL] | MIC [3] [µg/mL] | EC50 (HT-29) [µg/mL] | EC50 (A549) [µg/mL] | further results
C[C@@H]1[C@H](O)[C@@H](C)/C=C/C=C/C=C/C=C/C=C/C=C/C=C/[C@H](O[C@@H]2O[C@H](C)[C@@H](O)[C@H](N)[C@@H]2O)C[C@@H]2O[C@](O)(C[C@@H](O)C[C@@H](O)[C@H](O)CC[C@@H](O)C[C@@H](O)CC(=O)O[C@H]1C)C[C@H](O)[C@H]2C(=O)O [AMPHOTERICIN B] |  |  |  |  |  |  | MIC (Aspergillus niger): 3 µg/mL (≈ 3.25 µM)
CCCCC[C@H]1CCCCCCCCCC(=O)O[C@H]2[C@H](O)[C@@H](CO)O[C@@H](O[C@H]3[C@H](O1)O[C@H](C)[C@H](O)[C@@H]3O)[C@@H]2O[C@@H]1O[C@@H](C)[C@H](OC(=O)[C@@H](C)CC)[C@@H](O[C@@H]2O[C@@H](C)[C@H](O)[C@@H](O)[C@H]2O)[C@H]1OC(=O)[C@@H](C)CC [TRICOLORIN A] | 12 (≈ 11.7 µM) |  |  |  |  |  | 
C=CCc1cc(OC)c(OC)c(OC)c1OC | 810 (≈ 3400 µM) | 43 (≈ 180 µM) | 46 (≈ 193 µM) | 500 (≈ 2100 µM) | 71 (≈ 298 µM) | 29 (≈ 122 µM) | LC50 [2]: 144 µg/mL (≈ 604 µM); MIC (Fusarium oxysporum): 250 µg/mL (≈ 1050 µM)
COC1=CC(=O)C[C@@H](C)[C@]12Oc1c(Cl)c(OC)cc(OC)c1C2=O [GRISEOFULVIN] |  |  |  | 2.6 (≈ 7.37 µM) |  |  | 
COc1cc(C=O)c(OC)c(OC)c1OC | > 1000 | 822 (≈ 3630 µM) |  |  |  |  | 
COc1cccc2c1C(=O)c1c(O)c3c(c(O)c1C2=O)C[C@@](O)(C(=O)CO)C[C@@H]3O[C@H]1C[C@H](N)[C@H](O)[C@H](C)O1 [DOXORUBICIN] |  |  | 0.3 (≈ 0.552 µM) |  | 0.007 (≈ 0.0129 µM) | 0.03 (≈ 0.0552 µM) | 
